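All cell lines were grown in 96-well plates and treated with compound for 48 hours. GI50 marks 50% less growth. TGI denotes the concentration required for complete inhibition of growth.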
Assays:
Assay in all cases: growth of human tumour cells (NCI), 48 h
[1] = system: HOP-92 NSCLC
[2] = system: RXF 393 renal
[3] = system: K-562 leukemia
[4] = system: HT29 colon
[5] = system: SW-620 colon
[6] = system: HS 578T breast
[7] = system: SF-295 CNS
[8] = system: EKVX NSCLC
[9] = system: HOP-62 NSCLC
[10] = system: RPMI-8226 leukemia
[11] = system: MALME-3M melanoma
[12] = system: UO-31 renal
[13] = system: KM12 colon
[14] = system: IGROV1 ovarian
[15] = system: MDA-MB-435
[16] = system: HL-60(TB) leukemia
[17] = system: SF-268 CNS
[18] = system: NCI-H460 lung
[19] = system: HCT-15 colon
[20] = system: SK-MEL-5 melanoma
[21] = system: U251 CNS
[22] = system: MOLT-4 leukemia
[23] = system: HCT-116 colon
[24] = system: MCF7 breast
[25] = system: T-47D breast
[26] = system: OVCAR-5 ovarian
[27] = system: A498 renal
[28] = system: SF-539 CNS
[29] = system: M14 melanoma
[30] = system: A549 NSCLC
[31] = system: 786-0 renal
[32] = system: TK-10 renal
[33] = system: PC-3 prostate
[34] = system: NCI-H23 lung
[35] = system: HCC-2998 colon
[36] = system: DU-145 prostate
[37] = system: LOX IMVI melanoma
[38] = system: CCRF-CEM leukemia
[39] = system: SK-MEL-2 melanoma
[40] = system: CAKI-1 renal
[41] = system: SNB-19 CNS
[42] = system: MDA-MB-231 breast
[43] = system: SN12C renal
[44] = system: ACHN renal
[45] = system: SK-MEL-28 melanoma
[46] = system: SNB-75 CNS
[47] = system: NCI/ADR-RES ovarian
[48] = system: UACC-62 melanoma
[49] = system: NCI-H226 lung
[50] = system: OVCAR-4 ovarian
[51] = system: SK-OV-3 ovarian
[52] = system: SR leukemia
[53] = system: NCI-H522 lung
[54] = system: UACC-257 melanoma
[55] = system: BT-549 breast

In the case of `COc1ccc(N(C)c2cc(C#N)nc3ccccc23)cc1N`, the TGI [1] was greater than 76200 nM, the GI50 [2] was less than 10 nM and the TGI [2] was greater than 100000 nM. The GI50 [3] was less than 10 nM, the TGI [3] was greater than 100000 nM and the GI50 [4] was less than 10 nM. It also gave a TGI [4] of less than 10 nM, a GI50 [5] of less than 10 nM and a TGI [5] greater than 100000 nM. The GI50 [6] was less than 10 nM, the TGI [6] was greater than 100000 nM and the GI50 [7] was less than 10 nM. For the same molecule, the TGI [7] was greater than 100000 nM, the GI50 [8] was less than 10 nM and the TGI [8] was greater than 100000 nM. The GI50 [9] was less than 10 nM, the TGI [9] was greater than 100000 nM and the GI50 [10] was less than 10 nM. For the same molecule, the TGI [10] was greater than 54100 nM, the GI50 [11] was less than 10 nM and the TGI [11] was greater than 84600 nM. It also gave a GI50 [12] of less than 10 nM, a TGI [12] greater than 100000 nM and a GI50 [13] of less than 10 nM. It also gave a TGI [13] greater than 45400 nM, a GI50 [14] of less than 10 nM and a TGI [14] greater than 100000 nM. For the same molecule, the GI50 [15] was less than 10 nM, the TGI [15] was less than 10 nM and the GI50 [16] was less than 10 nM. The TGI [16] was less than 10 nM, the GI50 [17] was less than 10 nM and the TGI [17] was greater than 100000 nM. It also gave a GI50 [18] of less than 10 nM, a TGI [18] of 4560 nM and a GI50 [19] of less than 10 nM. For the same molecule, the GI50 [20] was less than 10 nM, the TGI [20] was less than 10 nM and the GI50 [21] was less than 10 nM. It also gave a TGI [21] greater than 100000 nM, a GI50 [22] of less than 10 nM and a TGI [22] greater than 60600 nM. It also gave a GI50 [23] of less than 10 nM, a TGI [23] of 1530 nM and a GI50 [24] of less than 10 nM. For the same molecule, the TGI [24] was greater than 100000 nM, the GI50 [25] was 7610 nM and the TGI [25] was greater than 100000 nM. For the same molecule, the GI50 [26] was less than 10 nM, the TGI [26] was greater than 100000 nM and the GI50 [27] was 83400 nM. The TGI [27] was greater than 100000 nM, the GI50 [28] was less than 10 nM and the TGI [28] was less than 10 nM. The GI50 [29] was less than 10 nM, the TGI [29] was greater than 100000 nM and the GI50 [30] was less than 10 nM. The TGI [30] was greater than 100000 nM, the GI50 [31] was less than 10 nM and the TGI [31] was greater than 100000 nM. It also gave a GI50 [32] of 19600 nM, a TGI [32] greater than 100000 nM and a GI50 [33] of less than 10 nM. The TGI [33] was greater than 100000 nM, the GI50 [34] was less than 10 nM and the TGI [34] was greater than 54100 nM. For the same molecule, the GI50 [35] was less than 10 nM, the TGI [35] was 131 nM and the GI50 [36] was less than 10 nM. It also gave a TGI [36] greater than 100000 nM, a GI50 [37] of less than 10 nM and a TGI [37] greater than 64200 nM. For the same molecule, the GI50 [38] was less than 10 nM, the TGI [38] was greater than 37100 nM and the GI50 [39] was less than 10 nM. It also gave a GI50 [40] of less than 10 nM, a TGI [40] greater than 100000 nM and a GI50 [41] of less than 10 nM. For the same molecule, the TGI [41] was greater than 100000 nM, the GI50 [42] was less than 10 nM and the TGI [42] was less than 10 nM. For the same molecule, the GI50 [43] was less than 10 nM, the TGI [43] was greater than 34300 nM and the GI50 [44] was less than 10 nM. It also gave a TGI [44] greater than 100000 nM, a TGI [45] greater than 100000 nM and a GI50 [46] of less than 10 nM. The TGI [46] was greater than 67700 nM, the GI50 [47] was less than 10 nM and the TGI [47] was less than 10 nM. It also gave a GI50 [48] of less than 10 nM, a TGI [48] greater than 100000 nM and a GI50 [49] of less than 10 nM. For the same molecule, the TGI [49] was greater than 100000 nM, the GI50 [50] was 3690 nM and the TGI [50] was greater than 100000 nM. For the same molecule, the GI50 [51] was less than 18.7 nM, the TGI [51] was greater than 100000 nM and the GI50 [52] was less than 10 nM. For the same molecule, the TGI [52] was greater than 73900 nM, the GI50 [53] was less than 10 nM and the TGI [53] was less than 10 nM. It also gave a GI50 [54] of 8620 nM, a TGI [54] greater than 100000 nM and a GI50 [55] of less than 10 nM.

Reference: PubChem BioAssay (NCI)
